From US12077503B2, “Substituted cyclic amides and their use as herbicides” (FMC CORPORATION, priority 2015, dated 2024)

Legend:
Format in all cases: in vivo
[1] = tested on: giant foxtail (Setaria faberi); test: Test G Pre-Emergence Protocol; conditions: Setaria faberi, pre-emergence, 312 h, evaluated after 13 days; for pest or weed control at 15.625 g/ha: 15.625 g ai/ha; for pest or weed control at 15.625 g/ha / pest or weed control at 250 g/ha: read-out: Foxtail, Giant damage rating (100=total damage to plant; 0=no damage to plant); for pest or weed control at 62.5 g/ha: 62.5 g ai/ha, 100=total damage to plant, 0=no damage to plant, read-out: plant damage rating, Foxtail, Giant; for pest or weed control at 250 g/ha: 250 g ai/ha
In short: (§1)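 Visual injury (0–100) at day 13 after a single pre-emergence spray. Rates: 15.625, 62.5, 250 g/ha in acetone–water 50:50 with 0.5% Tween 20. Growth conditions: 24/16° C, 14 h light, 65% humidity.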

[2] = tested on: redroot pigweed (Amaranthus retroflexus); test: Test G Pre-Emergence Protocol; conditions: Amaranthus retroflexus, pre-emergence, 312 h, evaluated after 13 days; for pest or weed control at 15.625 g/ha: 15.625 g ai/ha; for pest or weed control at 15.625 g/ha / pest or weed control at 250 g/ha: read-out: Pigweed, Redroot damage rating (100=total damage to plant; 0=no damage to plant); for pest or weed control at 62.5 g/ha: 62.5 g ai/ha, 100=total damage to plant, 0=no damage to plant, read-out: plant damage rating, Pigweed, Redroot; for pest or weed control at 250 g/ha: 250 g ai/ha
In short: as §1

[3] = tested on: ivy-leaved morning glory (Ipomoea hederacea); test: Test G Pre-Emergence Protocol; conditions: Ipomoea, pre-emergence, 312 h, evaluated after 13 days; for pest or weed control at 15.625 g/ha: 15.625 g ai/ha, read-out: Morning-glory, Ivy-leaved damage rating (100=total damage to plant; 0=no damage to plant); for pest or weed control at 250 g/ha: 250 g ai/ha, read-out: Morningglory, Ivy-leaved damage rating (100=total damage to plant; 0=no damage to plant)
In short: as §1

corn (Zea mays) [4] = test: Test G Pre-Emergence Protocol; conditions: Zea mays, pre-emergence, 312 h, evaluated after 13 days; for plant injury at 15.625 g/ha: 15.625 g ai/ha; for plant injury at 15.625 g/ha / plant injury at 250 g/ha: read-out: Corn damage rating (100=total damage to plant; 0=no damage to plant); for plant injury at 62.5 g/ha: 62.5 g ai/ha, 100=total damage to plant, 0=no damage to plant, read-out: plant damage rating, Corn; for plant injury at 250 g/ha: 250 g ai/ha
In short: as §1

[5] = tested on: velvetleaf (Abutilon theophrasti); test: Test G Pre-Emergence Protocol; conditions: Abutilon theophrasti, pre-emergence, 312 h, evaluated after 13 days; for pest or weed control at 15.625 g/ha: 15.625 g ai/ha; for pest or weed control at 15.625 g/ha / pest or weed control at 250 g/ha: read-out: Velvetleaf damage rating (100=total damage to plant; 0=no damage to plant); for pest or weed control at 62.5 g/ha: 62.5 g ai/ha, 100=total damage to plant, 0=no damage to plant, read-out: plant damage rating, Velvetleaf; for pest or weed control at 250 g/ha: 250 g ai/ha
In short: as §1

[6] = tested on: barnyardgrass (Echinochloa crus-galli); test: Test G Pre-Emergence Protocol; conditions: Echinochloa crus-galli, pre-emergence, 312 h, evaluated after 13 days; for pest or weed control at 15.625 g/ha: 15.625 g ai/ha, read-out: Barnyard grass damage rating (100=total damage to plant; 0=no damage to plant); for pest or weed control at 62.5 g/ha: 62.5 g ai/ha, 100=total damage to plant, 0=no damage to plant, read-out: plant damage rating, Barnyardgrass; for pest or weed control at 250 g/ha: 250 g ai/ha, read-out: Barnyardgrass damage rating (100=total damage to plant; 0=no damage to plant)
In short: as §1

[7] = tested on: giant foxtail (Setaria faberi); test: Test G Post-Emergence Protocol; conditions: Setaria faberi, post-emergence, 312 h; for pest or weed control at 15.625 g/ha: 15.625 g ai/ha, evaluated after 13 days (100=total damage to plant; 0=no damage to plant), read-out: Foxtail, Giant damage rating; for pest or weed control at 62.5 g/ha: 62.5 g ai/ha, read-out: Foxtail, Giant damage rating (100=total damage to plant; 0=no damage to plant); for pest or weed control at 62.5 g/ha / pest or weed control at 250 g/ha: evaluated after 13 days; for pest or weed control at 250 g/ha: 250 g ai/ha, read-out: damage to plant, Foxtail, Giant (100=total damage to plant; 0=no damage to plant)
In short: (§2)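 A glasshouse post-emergence test: 8-day-old plants sprayed at 15.625, 62.5 or 250 g/ha, then grown at 24/16 °C day/night with 14 h light and 65% humidity. Damage rated 13 days later, 0–100.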

[8] = tested on: redroot pigweed (Amaranthus retroflexus); test: Test G Post-Emergence Protocol; conditions: Amaranthus retroflexus, post-emergence, 312 h; for pest or weed control at 15.625 g/ha: 15.625 g ai/ha, evaluated after 13 days (100=total damage to plant; 0=no damage to plant), read-out: Pigweed, Redroot damage rating; for pest or weed control at 62.5 g/ha: 62.5 g ai/ha, read-out: Pigweed, Redroot damage rating (100=total damage to plant; 0=no damage to plant); for pest or weed control at 62.5 g/ha / pest or weed control at 250 g/ha: evaluated after 13 days; for pest or weed control at 250 g/ha: 250 g ai/ha, read-out: damage to plant, Pigweed, Redroot (100=total damage to plant; 0=no damage to plant)
In short: as §2

[9] = tested on: ivy-leaved morning glory (Ipomoea hederacea); test: Test G Post-Emergence Protocol; conditions: Ipomoea, post-emergence, 312 h; for pest or weed control at 15.625 g/ha: 15.625 g ai/ha, evaluated after 13 days (100=total damage to plant; 0=no damage to plant), read-out: Morningglory, Ivy-leaved damage rating; for pest or weed control at 62.5 g/ha: 62.5 g ai/ha, read-out: Morningglory, Ivy-leaved damage rating (100=total damage to plant; 0=no damage to plant); for pest or weed control at 62.5 g/ha / pest or weed control at 250 g/ha: evaluated after 13 days; for pest or weed control at 250 g/ha: 250 g ai/ha, read-out: damage to plant, Morningglory, Ivy-leaved (100=total damage to plant; 0=no damage to plant)
In short: as §2

corn (Zea mays) [10] = test: Test G Post-Emergence Protocol; conditions: Zea mays, post-emergence, 312 h; for plant injury at 15.625 g/ha: 15.625 g ai/ha, evaluated after 13 days (100=total damage to plant; 0=no damage to plant), read-out: Corn damage rating; for plant injury at 62.5 g/ha: 62.5 g ai/ha, read-out: Corn damage rating (100=total damage to plant; 0=no damage to plant); for plant injury at 62.5 g/ha / plant injury at 250 g/ha: evaluated after 13 days; for plant injury at 250 g/ha: 250 g ai/ha, read-out: damage to plant, Corn (100=total damage to plant; 0=no damage to plant)
In short: as §2

[11] = tested on: velvetleaf (Abutilon theophrasti); test: Test G Post-Emergence Protocol; conditions: Abutilon theophrasti, post-emergence, 312 h; for pest or weed control at 15.625 g/ha: 15.625 g ai/ha, evaluated after 13 days (100=total damage to plant; 0=no damage to plant), read-out: Velvetleaf damage rating; for pest or weed control at 62.5 g/ha: 62.5 g ai/ha, read-out: Velvetleaf damage rating (100=total damage to plant; 0=no damage to plant); for pest or weed control at 62.5 g/ha / pest or weed control at 250 g/ha: evaluated after 13 days; for pest or weed control at 250 g/ha: 250 g ai/ha, read-out: damage to plant, Velvetleaf (100=total damage to plant; 0=no damage to plant)
In short: as §2

[12] = tested on: barnyardgrass (Echinochloa crus-galli); test: Test G Post-Emergence Protocol; conditions: Echinochloa crus-galli, post-emergence, 312 h; for pest or weed control at 15.625 g/ha: 15.625 g ai/ha, evaluated after 13 days (100=total damage to plant; 0=no damage to plant), read-out: Barnyardgrass damage rating; for pest or weed control at 62.5 g/ha: 62.5 g ai/ha, read-out: Barnyardgrass damage rating (100=total damage to plant; 0=no damage to plant); for pest or weed control at 62.5 g/ha / pest or weed control at 250 g/ha: evaluated after 13 days; for pest or weed control at 250 g/ha: 250 g ai/ha, read-out: damage to plant, Barnyardgrass (100=total damage to plant; 0=no damage to plant)
In short: as §2

Structure (SMILES)	pest or weed control at 15.625 g/ha [1] [%]	pest or weed control at 62.5 g/ha [1] [%]	pest or weed control at 250 g/ha [1] [%]	pest or weed control at 15.625 g/ha [2] [%]	pest or weed control at 62.5 g/ha [2] [%]	pest or weed control at 250 g/ha [2] [%]	pest or weed control at 15.625 g/ha [3] [%]	pest or weed control at 250 g/ha [3] [%]	plant injury at 15.625 g/ha (corn (Zea mays) [4]) [%]	plant injury at 62.5 g/ha (corn (Zea mays) [4]) [%]	plant injury at 250 g/ha (corn (Zea mays) [4]) [%]	pest or weed control at 15.625 g/ha [5] [%]	pest or weed control at 62.5 g/ha [5] [%]	pest or weed control at 250 g/ha [5] [%]	pest or weed control at 15.625 g/ha [6] [%]	pest or weed control at 62.5 g/ha [6] [%]	pest or weed control at 250 g/ha [6] [%]	pest or weed control at 15.625 g/ha [7] [%]	pest or weed control at 62.5 g/ha [7] [%]	pest or weed control at 250 g/ha [7] [%]	also measured
C[C@@]1(C(=O)Nc2cccc(F)c2F)C(=O)NC[C@@H]1c1ccc(C(F)(F)F)cc1 (racemic) [Compound 1405]	0	0	0	0	0	0	0	0	0	0	0	0	0	0	0	0	0	0	0	0	pest or weed control at 62.5 g/ha ([3]; 62.5 g ai/ha, 100=total damage to plant, 0=no damage to plant, read-out: plant damage rating, Morningglory, Ivy-leaved): 0%; pest or weed control at 15.625 g/ha [8]: 0%; pest or weed control at 62.5 g/ha [8]: 0%; pest or weed control at 250 g/ha [8]: 0%; pest or weed control at 15.625 g/ha [9]: 0%; pest or weed control at 62.5 g/ha [9]: 0%; pest or weed control at 250 g/ha [9]: 0%; plant injury at 15.625 g/ha (corn (Zea mays) [10]): 0%; plant injury at 62.5 g/ha (corn (Zea mays) [10]): 0%; plant injury at 250 g/ha (corn (Zea mays) [10]): 0%; pest or weed control at 15.625 g/ha [11]: 0%; pest or weed control at 62.5 g/ha [11]: 0%; pest or weed control at 250 g/ha [11]: 0%; pest or weed control at 15.625 g/ha [12]: 0%; pest or weed control at 62.5 g/ha [12]: 0%; pest or weed control at 250 g/ha [12]: 0%
CSc1nc(NC(=O)[C@@H]2C(=O)N(C)C[C@H]2c2ccc(C(F)(F)F)cc2)n[nH]1 (racemic) [Compound 1539]	0	10	20	0	0	0	0	0	0	0	0	0	0	0	0	10	20	0	0	0	pest or weed control at 15.625 g/ha [8]: 0%; pest or weed control at 62.5 g/ha [8]: 0%; pest or weed control at 250 g/ha [8]: 0%; pest or weed control at 15.625 g/ha [9]: 0%; pest or weed control at 62.5 g/ha [9]: 0%; pest or weed control at 250 g/ha [9]: 0%; plant injury at 15.625 g/ha (corn (Zea mays) [10]): 0%; plant injury at 62.5 g/ha (corn (Zea mays) [10]): 0%; plant injury at 250 g/ha (corn (Zea mays) [10]): 0%; pest or weed control at 15.625 g/ha [11]: 0%; pest or weed control at 62.5 g/ha [11]: 0%; pest or weed control at 250 g/ha [11]: 0%; pest or weed control at 15.625 g/ha [12]: 0%; pest or weed control at 62.5 g/ha [12]: 0%; pest or weed control at 250 g/ha [12]: 0%
